Like-named read-outs stand apart in the source and are kept apart here.
Legend:
parental HEK cells = assay: HEK parental Agonist Counterscreen Assay (non-transfected cells); format: cell-based; settings: for Averaged Max % Response (±St. Dev.): activity relative to known control
Text: The high control for the agonist counterscreen was Forskolin not acetylcholine.

GPR139 = target: T1, GPR139 (Homo sapiens, UniProt Q6DWJ6); assay: GPR139 Agonist titration / agonist counterscreen assay (calcium detection, HEK-GPR139 cells); format: cell-based; parameters: expressed in transfected cells; host or cells: HEK Aequorin cells, Maxcyte transient transfection; settings: GPR139 Agonist Activity; for EC50: read-out: EC50; for Averaged Max % Response (±St. Dev.): activity relative to known control
T1 sequence (Q6DWJ6 1-353): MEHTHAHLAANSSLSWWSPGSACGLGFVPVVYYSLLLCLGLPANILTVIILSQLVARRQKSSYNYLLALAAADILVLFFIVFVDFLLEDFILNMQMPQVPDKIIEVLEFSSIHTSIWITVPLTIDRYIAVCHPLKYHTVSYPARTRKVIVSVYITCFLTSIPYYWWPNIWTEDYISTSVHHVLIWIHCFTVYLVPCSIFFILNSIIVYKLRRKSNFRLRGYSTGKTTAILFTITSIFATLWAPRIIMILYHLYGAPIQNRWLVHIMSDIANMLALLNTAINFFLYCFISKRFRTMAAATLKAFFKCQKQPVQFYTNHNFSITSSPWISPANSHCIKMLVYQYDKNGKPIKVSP
Procedure: GPR activity was assessed using a calcium detection assay. […] Negative control samples were treated with DMSO. […] Intracellular calcium was measured using Calcium 5.

[1] = HEK Agonist Activity section of Table 4 (parental HEK counterscreen)
[2] = Homo sapiens, HEK293, HEK Agonist Activity section of Table 4 (parental HEK counterscreen)
[3] = values printed in E-notation without unit
[4] = Homo sapiens, HEK293, HEK Agonist Activity, parental non-transfected HEK cells

Compound	Lipophilic Efficiency (logD) (parental HEK cells; HEK Agonist Activity section)	Lipophilic Efficiency (logP) (parental HEK cells; HEK Agonist Activity section)	Efficiency Ligand (GPR139)	Hill Slope (GPR139)	Lipophilic Efficiency (logD) (GPR139)	Lipophilic Efficiency (logP) (GPR139)	EC50 (GPR139; HEK-GPR139 cells)	Averaged Max % Response (±St. Dev.) (GPR139)	Lipophilic Efficiency (logD) (GPR139; based on logD)	Lipophilic Efficiency (logP) (GPR139; based on logP)	Hill Slope (GPR139; fitted dose-response curve)	Efficiency Ligand (GPR139; ligand efficiency)	EC50 (GPR139; [3])	Averaged Max % Response (±St. Dev.) (parental HEK cells; HEK Agonist Activity section)	EC50 (parental HEK cells; [2])	other results
CC(NC(=O)COC(=O)c1ccccc1C(F)(F)F)c1ccccc1 (stereo not shown) [SR-01000037440]	–	–	–	–	–	–	–	90.68 ± 18.21%	3.59	3.59	0.54	0.42	32.9 nM	–	–	Lipophilic Efficiency (logD) (parental HEK cells; HEK Agonist Activity): 0.95; Lipophilic Efficiency (logP) (parental HEK cells; HEK Agonist Activity): 0.95; Averaged Max % Response (±St. Dev.) (parental HEK cells; HEK Agonist Activity): 16.47 ± 8.15%; EC50 (parental HEK cells; [4]): > 14400 nM
O=C(Cc1ccccc1)CC1C=CC2=C1c1ccccc1CC2 (stereo not shown) [SR-01000134941]	2.40	2.40	–	–	–	–	–	109.36 ± 34.06%	4.30	4.30	0.39	0.39	–	10.65 ± 6.79%	> 14100 nM	–
Cc1cccc(NC(=O)Cn2ncc3c2-c2ccccc2OC3)n1 [SR-01000135038]	2.87	2.87	–	–	–	–	–	105.92 ± 4.10%	5.32	5.31	0.77	0.43	50.5 nM	13.01 ± 4.86%	> 14100 nM	–
Cc1cc(CC(=O)N/C=C/c2cccc3ccccc23)n[nH]1 [SR-01000080408]	4.10	2.51	–	–	–	–	–	105.88 ± 16.21%	6.30	4.72	0.34	0.45	–	71.97 ± 7.16%	11900 nM	Hill Slope (parental HEK cells; HEK Agonist Activity section): 1.95
COc1ccc(CCNC(=O)CC(=O)NCCc2ccc(OC)cc2)cc1 [SR-01000034566]	2.60	2.60	–	–	–	–	–	100.73 ± 15.83%	4.65	4.65	0.96	0.36	137 nM	−4.69 ± 7.66%	–	EC50 (parental HEK cells; [1]): > 15200 nM
Cc1ccc(CCNC(=O)CN2CCN(Cc3ccccc3Cl)C2=O)cc1 [SR-01000125464]	1.74	1.74	–	–	–	–	–	83.25 ± 20.00%	3.74	3.74	0.73	0.35	143 nM	5.57 ± 17.96%	> 14100 nM	–
CC1(c2ccc3ccccc3c2)NC(=O)C(CC(=O)NCc2ccco2)C1=O (stereo not shown) [SR-01000058120]	–	–	–	–	–	–	–	103.66 ± 2.94%	4.73	4.73	0.17	0.37	40.5 nM	–	–	Lipophilic Efficiency (logD) (parental HEK cells; HEK Agonist Activity): 2.18; Lipophilic Efficiency (logP) (parental HEK cells; HEK Agonist Activity): 2.18; Averaged Max % Response (±St. Dev.) (parental HEK cells; HEK Agonist Activity): 11.91 ± 6.77%; EC50 (parental HEK cells; [4]): > 14300 nM
CCOC(=O)N1CCC2=C(CC(NC(=O)Cc3cccc4ccccc34)=C2C(C)=O)C1 [SR-01000011241]	1.05	1.05	0.26	1.07	1.89	1.89	–	63.10 ± 2.62%	–	–	–	–	–	1.28 ± 10.93%	> 14200 nM	–
CCC1CCCCN1C(=O)CN1C(=O)NC(C)(c2ccc3ccccc3c2)C1=O (stereo not shown) [SR-01000048417]	–	–	–	–	–	–	–	111.02 ± 13.88%	4.73	4.73	0.52	0.38	16.9 nM	–	–	Lipophilic Efficiency (logD) (parental HEK cells; HEK Agonist Activity): 1.80; Lipophilic Efficiency (logP) (parental HEK cells; HEK Agonist Activity): 1.80; Averaged Max % Response (±St. Dev.) (parental HEK cells; HEK Agonist Activity): −4.34 ± 6.43%; EC50 (parental HEK cells; HEK Agonist Activity, parental non-transfected HEK cells): > 14300 nM

Continued, in another order:

Lipophilic Efficiency (logD) (parental HEK cells; HEK Agonist Activity section)	Lipophilic Efficiency (logP) (parental HEK cells; HEK Agonist Activity section)	Efficiency Ligand (GPR139)	Hill Slope (GPR139)	Lipophilic Efficiency (logD) (GPR139)	Lipophilic Efficiency (logP) (GPR139)	EC50 (GPR139; HEK-GPR139 cells)	Averaged Max % Response (±St. Dev.) (GPR139)	Lipophilic Efficiency (logD) (GPR139; based on logD)	Lipophilic Efficiency (logP) (GPR139; based on logP)	Hill Slope (GPR139; fitted dose-response curve)	Efficiency Ligand (GPR139; ligand efficiency)	EC50 (GPR139; [3])	Compound	Averaged Max % Response (±St. Dev.) (parental HEK cells; HEK Agonist Activity section)	EC50 (parental HEK cells; [2])	other results
2.82	2.34	0.30	0.84	4.49	4.01	301 nM	81.84 ± 7.77%	–	–	–	–	–	O=C(CN1N=C(c2ccc(Cl)cc2)CCC1=O)NCCN1CCc2ccccc2C1 [SR-01000145135]	−17.80 ± 4.24%	–	EC50 (parental HEK cells; [1]): > 14100 nM
2.25	2.21	–	–	–	–	–	103.91 ± 10.30%	4.04	3.99	0.77	0.36	231 nM	COc1ccc(C(=O)NNC(=O)COc2ccc(Cl)cc2Cl)cc1OC [SR-01000357814]	7.60 ± 11.41%	> 14100 nM	–
1.74	1.67	–	–	–	–	–	94.36 ± 3.49%	3.88	3.82	0.63	0.41	–	Cc1ccc(NC(=O)NNC(=O)COc2ccc(Cl)cc2)c(C)c1 [SR-01000309617]	−3.26 ± 4.40%	> 14400 nM	–
0.70	0.70	0.36	0.68	2.32	2.32	335 nM	76.15 ± 6.21%	–	–	–	–	–	Cn1c(CCc2ccc(F)cc2F)nnc1C1=C(O)N=C2CC=CC21 (stereo not shown) [SR-01000922914]	−4.64 ± 6.81%	> 14100 nM	–
1.59	1.59	0.37	2.04	3.13	3.13	401 nM	90.74 ± 17.54%	–	–	–	–	–	O=C(CCc1ccccc1)NNC(=O)C12CC3CC(CC(C3)C1)C2 [SR-01000314474]	−0.07 ± 5.01%	> 14100 nM	–
2.23	2.23	0.36	0.62	3.61	3.61	589 nM	112.22 ± 29.96%	–	–	–	–	–	O=C(Cn1ncc2c1-c1ccccc1OC2)Nc1ccc(Cl)cc1 [SR-01000152099]	29.06 ± 12.18%	> 14100 nM	–
2.56	2.56	0.40	1.21	4.24	4.24	277 nM	101.79 ± 19.12%	–	–	–	–	–	O=C(CCOc1ccccc1)NCC1COc2ccccc2O1 (stereo not shown) [SR-01000479007]	8.46 ± 4.77%	–	EC50 (parental HEK cells; [1]): > 13200 nM
